Patent US20160238617A1, “[…] AND METHODS […] TO INNER EAR DISORDERS” (THE UNIVERSITY OF CONNECTICUT, priority 2015, published 2016)

Assays:
[1] = system: prestin; assay: serum prestin concentration in mice treated with cisplatin; format: in vivo; conditions: same time course up to two weeks after exposure
Method: Although the hearing threshold measured by ABR was unaffected, prestin levels continued to change after exposure to cisplatin.
The ototoxin drug cisplatin (a commonly used chemotherapeutic agent) was administered and then functional assessment of hearing and measurement of prestin were carried out at several intervals up to two weeks after exposure. Hearing was assessed using a standard testing protocol called click-evoked auditory brainstem response (ABR) (FIG. 13).

[2] = system: prestin; assay: serum prestin level in cisplatin-treated rats; format: in vivo; conditions: 72 hours after treatment, compared to controls
Excerpt: Rats are more vulnerable to ototoxic damage than mice.

## N.N.[Cl][Pt][Cl] [cisplatin]
[1]
  serum concentrations of prestin: increasing
[2]
  serum prestin level: elevated
